Measurements: patent US20240158446A1, “CYCLIC COMPOUND HAVING SELECTIVE INHIBITORY ACTION ON KRAS OVER HRAS AND NRAS” (CHUGAI SEIYAKU KABUSHIKI KAISHA, priority 2021, published 2024)
Read-outs that look alike come from different tables or passages of the source.

Experiments:
[1] = molecular target: GDP-bound KRAS wild-type protein (Homo sapiens, UniProt P01116); experiment: Binding to KRAS by surface plasmon resonance (SPR), Single Cycle Kinetics; details: SPR, Single Cycle Kinetics
[2] = molecular target: GDP-bound NRAS wild-type protein (Homo sapiens, UniProt P01111); experiment: Binding to NRAS by surface plasmon resonance (SPR), Single Cycle Kinetics; details: SPR; for NRAS/KRAS (ratio of KD value for NRAS to KD value for KRAS): GDP-bound NRAS wild-type protein vs GDP-bound KRAS wild-type protein
Chain of GDP-bound NRAS wild-type protein (P01111 whole entry): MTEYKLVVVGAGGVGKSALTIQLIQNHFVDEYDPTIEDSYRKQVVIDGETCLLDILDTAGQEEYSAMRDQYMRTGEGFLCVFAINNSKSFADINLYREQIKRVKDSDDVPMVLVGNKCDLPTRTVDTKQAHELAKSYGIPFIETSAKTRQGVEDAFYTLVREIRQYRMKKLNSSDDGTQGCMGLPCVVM

[3] = molecular target: GDP-bound HRAS wild-type protein (Homo sapiens, UniProt P01112); experiment: Binding to HRAS by surface plasmon resonance (SPR), Single Cycle Kinetics; details: SPR; for HRAS/KRAS (ratio of KD value for HRAS to KD value for KRAS): GDP-bound HRAS wild-type protein vs GDP-bound KRAS wild-type protein
Chain of GDP-bound HRAS wild-type protein (P01112 whole entry): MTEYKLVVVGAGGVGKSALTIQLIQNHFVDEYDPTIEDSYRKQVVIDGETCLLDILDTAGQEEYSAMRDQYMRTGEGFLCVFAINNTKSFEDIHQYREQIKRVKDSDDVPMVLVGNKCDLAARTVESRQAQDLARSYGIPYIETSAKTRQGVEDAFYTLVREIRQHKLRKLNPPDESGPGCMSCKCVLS

[4] = tested on: human lung cancer strain NCI-H441; details: read-out: NCI-H441 cell proliferation inhibitory activity, 50% proliferation inhibitory concentration (IC50 value); NCI-H441, four days, CellTiter-Glo;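 further: cell proliferation inhibition after four days measured by CellTiter-Glo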
[5] = 1:1 binding model, read-out: KD value with respect to GDP-bound KRAS wild-type protein
[6] = GDP-bound KRAS wild-type protein, read-out: KRAS KD

Chain of GDP-bound KRAS wild-type protein (P01116 whole entry): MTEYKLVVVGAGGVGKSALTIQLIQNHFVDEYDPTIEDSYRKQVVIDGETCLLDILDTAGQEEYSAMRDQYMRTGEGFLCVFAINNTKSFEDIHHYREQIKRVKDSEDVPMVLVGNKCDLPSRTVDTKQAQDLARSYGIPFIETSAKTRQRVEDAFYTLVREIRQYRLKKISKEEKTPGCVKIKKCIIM

Compound | Kd [1, 5] [nM] | Kd [1, 6] [nM] | NRAS/KRAS (ratio of KD value for NRAS to KD value for KRAS) [2] | ratio of the KD value with respect to GDP-bound NRAS wild-type protein to the KD value with respect to KRAS [2] | HRAS/KRAS (ratio of KD value for HRAS to KD value for KRAS) [3] | ratio of the KD value with respect to GDP-bound HRAS wild-type protein to the KD value with respect to KRAS [3] | IC50 [4] [nM]
CCC[C@H]1C(=O)N[C@@H]([C@@H](C)CC)C(=O)N(C2CC2)CC(=O)N(C)[C@H]2C/C=C\CCN(C2=O)[C@@H](Cc2ccc(C(F)(F)F)cc2)C(=O)N(C)CC(=O)N[C@@H](CCc2cc(F)c(C(F)(F)F)c(F)c2)C(=O)N2C[C@H](OCC)C[C@H]2C(=O)N(C)C2(CCC2)C(=O)N(C)[C@@H](C2CCCC2)C(=O)N(C)[C@H](C(=O)N2CCCCC2)CC(=O)N1C [PP3110] | 4.3 | 4.3 | A (a compound having 10 or more and less than 20 is denoted as A) | A (a compound having 10 or more and less than 20 is denoted as A) | A (a compound having 10 or more and less than 20 is denoted as A) | A (a compound having 10 or more and less than 20 is denoted as A) | 69.9
CCC[C@H]1C(=O)N[C@@H]([C@@H](C)CC)C(=O)N(C2CC2)CC(=O)N(C)[C@H]2C/C=C\CCN(C2=O)[C@@H](Cc2ccc(C(F)(F)F)cc2)C(=O)N(C)CC(=O)N[C@@H](CCc2cc(F)c(C(F)(F)F)c(F)c2)C(=O)N2C[C@H](OCC)C[C@H]2C(=O)N(C)C2(CCC2)C(=O)N(C)[C@@H](C2CCCC2)C(=O)N(C)[C@H](C(=O)N2CCCC2)CC(=O)N1C [PP3112] | 3.1 | 3.1 | A (a compound having 10 or more and less than 20 is denoted as A) | A (a compound having 10 or more and less than 20 is denoted as A) | B (a compound having 3 or more and less than 10 is denoted as B) | B (a compound having 3 or more and less than 10 is denoted as B) | 32.4
CCC[C@H]1C(=O)N[C@@H]([C@@H](C)CC)C(=O)N(C2CC2)CC(=O)N(C)[C@H]2C/C=C\CCN(C2=O)[C@@H](Cc2ccc(C)cc2)C(=O)N(C)CC(=O)N[C@@H](CCc2cc(F)c(C(F)(F)F)c(F)c2)C(=O)N2C[C@H](OCC)C[C@H]2C(=O)N(C)C2(CCC2)C(=O)N(C)[C@@H](C2CCCC2)C(=O)N(C)[C@H](C(=O)N2CCCC2)CC(=O)N1C [PP3113, (2S,8S,12R,14S,20S,23S,27S,30S,36S,38Z)-20-cyclopentyl-32-cyclopropyl-8-[2-[3,5-difluoro-4-(trifluoromethyl)phenyl]ethyl]-12-ethoxy-4,16,19,22,26,35-hexamethyl-30-[(1S)-1-methylpropyl]-27-propyl-2-(p-tolylmethyl)-23-(pyrrolidine-1-carbonyl)spiro[1,4,7,10,16,19,22,26,29,32,35-undecazatricyclo[34.5.1.0^10,14]dotetracont-38-ene-17,1′-cyclobutane]-3,6,9,15,18,21,25,28,31,34,42-undecone] | 0.17 | 0.17 | A (a compound having 10 or more and less than 20 is denoted as A) | A (a compound having 10 or more and less than 20 is denoted as A) | A (a compound having 10 or more and less than 20 is denoted as A) | A (a compound having 10 or more and less than 20 is denoted as A) | 6.1
CCC[C@H]1C(=O)N[C@@H]([C@@H](C)CC)C(=O)N2CCC[C@H]2C(=O)N(C)[C@H]2C/C=C\CCN(C2=O)[C@@H](Cc2ccc(C(F)(F)F)cc2)C(=O)N(C)CC(=O)N[C@@H](CCc2cc(F)c(C(F)(F)F)c(F)c2)C(=O)N2C[C@H](OCC)C[C@H]2C(=O)N(C)C2(CCC2)C(=O)N(C)[C@@H](C2CCCC2)C(=O)N(C)[C@H](C(=O)N2CCCCC2)CC(=O)N1C [PP3114] | 4.5 | 4.5 | AA (a compound having 20 or more is denoted as AA) | AA (a compound having 20 or more is denoted as AA) | A (a compound having 10 or more and less than 20 is denoted as A) | A (a compound having 10 or more and less than 20 is denoted as A) | 14.7
CCC[C@H]1C(=O)N[C@@H]([C@@H](C)CC)C(=O)N2CCC[C@H]2C(=O)N(C)[C@H]2C/C=C\CCN(C2=O)[C@@H](Cc2ccc(C)cc2)C(=O)N(C)CC(=O)N[C@@H](CCc2cc(F)c(C(F)(F)F)c(F)c2)C(=O)N2C[C@H](OCC)C[C@H]2C(=O)N(C)C2(CCC2)C(=O)N(C)[C@@H](C2CCCC2)C(=O)N(C)[C@H](C(=O)N2CCCCC2)CC(=O)N1C [PP3115, (1S,4S,10S,13S,17S,20S,26S,28R,32S,38S,42Z)-20-cyclopentyl-32-[2-[3,5-difluoro-4-(trifluoromethyl)phenyl]ethyl]-28-ethoxy-2,14,18,21,24,36-hexamethyl-10-[(1S)-1-methylpropyl]-17-(piperidine-1-carbonyl)-13-propyl-38-(p-tolylmethyl)spiro[2,8,11,14,18,21,24,30,33,36,39-undecazatetracyclo[37.5.1.0^4,8.0^26,30]pentatetracont-42-ene-23,1′-cyclobutane]-3,9,12,15,19,22,25,31,34,37,45-undecone] | 2.6 | 2.6 | A (a compound having 10 or more and less than 20 is denoted as A) | A (a compound having 10 or more and less than 20 is denoted as A) | B (a compound having 3 or more and less than 10 is denoted as B) | B (a compound having 3 or more and less than 10 is denoted as B) | 5.7
CCC[C@H]1C(=O)N[C@@H]([C@@H](C)CC)C(=O)N2CCC[C@H]2C(=O)N(C)[C@H]2C/C=C\CCN(C2=O)[C@@H](Cc2ccc(C(F)(F)F)cc2)C(=O)N(C)CC(=O)N[C@@H](CCc2cc(F)c(C(F)(F)F)c(F)c2)C(=O)N2C[C@H](OCC)C[C@H]2C(=O)N(C)C2(CCC2)C(=O)N(C)[C@@H](C2CCCC2)C(=O)N(C)[C@H](C(=O)N2CCCC2)CC(=O)N1C [PP3116] | 0.27 | 0.27 | A (a compound having 10 or more and less than 20 is denoted as A) | A (a compound having 10 or more and less than 20 is denoted as A) | A (a compound having 10 or more and less than 20 is denoted as A) | A (a compound having 10 or more and less than 20 is denoted as A) | 7.8
